The record followed here is patent US12581252B2, “Substituted pyrrolo[3,4-b]pyridines as PI3K-α inhibitors” (Relay Therapeutics, Inc., priority 2020, dated 2026).

The target in this experiment is H1047R PIK3CA enzyme (Homo sapiens, UniProt P42336, H1047R). In words: ADP-Glo Biochemical PIK3CA Kinase Assay. On the technique in general: In ADP-Glo the light output rises with the ADP produced.
Sequence of H1047R PIK3CA enzyme (P42336 whole entry H1047R): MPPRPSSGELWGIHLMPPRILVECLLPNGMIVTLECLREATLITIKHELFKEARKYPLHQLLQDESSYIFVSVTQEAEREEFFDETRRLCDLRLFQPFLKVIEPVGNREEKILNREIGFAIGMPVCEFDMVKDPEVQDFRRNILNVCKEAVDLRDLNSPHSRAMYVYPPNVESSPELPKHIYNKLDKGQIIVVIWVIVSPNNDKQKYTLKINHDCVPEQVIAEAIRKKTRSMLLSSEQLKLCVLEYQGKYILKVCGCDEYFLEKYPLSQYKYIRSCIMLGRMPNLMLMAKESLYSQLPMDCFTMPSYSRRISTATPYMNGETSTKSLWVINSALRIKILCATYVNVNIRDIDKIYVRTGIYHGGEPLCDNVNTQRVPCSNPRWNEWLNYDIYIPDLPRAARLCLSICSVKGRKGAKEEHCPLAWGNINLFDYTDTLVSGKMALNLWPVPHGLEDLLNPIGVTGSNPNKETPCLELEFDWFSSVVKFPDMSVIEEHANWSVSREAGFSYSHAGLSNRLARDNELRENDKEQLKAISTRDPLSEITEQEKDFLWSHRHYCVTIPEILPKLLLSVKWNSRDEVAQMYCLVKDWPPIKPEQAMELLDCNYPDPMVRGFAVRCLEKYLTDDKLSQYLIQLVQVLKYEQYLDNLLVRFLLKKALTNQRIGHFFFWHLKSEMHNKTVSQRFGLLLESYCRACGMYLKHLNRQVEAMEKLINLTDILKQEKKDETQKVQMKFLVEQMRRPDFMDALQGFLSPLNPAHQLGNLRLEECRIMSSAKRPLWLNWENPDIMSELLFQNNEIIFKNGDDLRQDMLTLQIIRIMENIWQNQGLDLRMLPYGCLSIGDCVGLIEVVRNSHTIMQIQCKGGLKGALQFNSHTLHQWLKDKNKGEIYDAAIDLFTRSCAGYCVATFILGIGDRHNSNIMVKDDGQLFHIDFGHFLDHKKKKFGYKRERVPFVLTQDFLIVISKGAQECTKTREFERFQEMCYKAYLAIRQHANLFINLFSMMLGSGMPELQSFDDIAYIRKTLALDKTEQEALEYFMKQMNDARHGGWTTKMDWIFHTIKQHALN
Sequence of H1047R PIK3CA enzyme (P27986 whole entry partner): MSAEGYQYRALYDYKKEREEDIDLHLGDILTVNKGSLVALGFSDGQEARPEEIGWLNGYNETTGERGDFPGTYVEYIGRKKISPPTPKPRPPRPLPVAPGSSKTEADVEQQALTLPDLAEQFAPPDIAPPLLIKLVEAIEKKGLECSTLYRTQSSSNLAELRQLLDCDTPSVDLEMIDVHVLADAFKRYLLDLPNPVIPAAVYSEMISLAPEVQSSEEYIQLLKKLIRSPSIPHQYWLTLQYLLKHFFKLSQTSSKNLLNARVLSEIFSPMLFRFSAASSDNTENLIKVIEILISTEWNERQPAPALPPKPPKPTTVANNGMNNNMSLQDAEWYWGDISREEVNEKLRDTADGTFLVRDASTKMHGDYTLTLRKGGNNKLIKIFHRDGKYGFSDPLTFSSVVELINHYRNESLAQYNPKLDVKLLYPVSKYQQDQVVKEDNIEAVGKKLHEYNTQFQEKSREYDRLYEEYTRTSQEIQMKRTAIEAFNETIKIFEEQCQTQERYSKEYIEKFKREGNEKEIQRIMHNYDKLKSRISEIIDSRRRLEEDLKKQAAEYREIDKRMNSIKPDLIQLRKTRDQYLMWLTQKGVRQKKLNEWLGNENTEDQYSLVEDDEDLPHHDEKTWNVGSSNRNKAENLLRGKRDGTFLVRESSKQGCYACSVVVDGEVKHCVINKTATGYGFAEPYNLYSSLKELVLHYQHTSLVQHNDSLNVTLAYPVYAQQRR
Turning to `O=C1NC(c2cc(F)ccc2Cl)c2c(Nc3ncc(C(F)(F)F)cc3F)cc(Br)cc21` (stereo not shown) [Compound I-1118], the IC50 fell in the range of 500 to 1000 nM.

On to `O=C(Nc1cc(NC2=NC[C@H](C(F)(F)F)O2)cc2c1[C@@H](c1cc(F)ccc1Cl)NC2=O)c1cc(F)cc(C(F)(F)F)c1` (single isomer, unassigned) [Compound I-2325], for which the IC50 was in the range of 1000 to 10000 nM.

On to `O=C(Nc1cccc2c1[C@@H](C13C[C@H]4C[C@@H](C1)C[C@@H](C3)C4)NC2=O)c1cc(F)cc(C(F)(F)F)c1` (racemic) [Compound I-2074], for which the IC50 lay within 10000 to 100000 nM.

`O=C(Nc1cc(-n2ccc3ncccc3c2=O)cc2c1C(c1cc(F)ccc1Cl)NC2=O)c1cc(F)cc(C(F)(F)F)c1` (stereo not shown) [Compound I-1250] registered an IC50 of no more than 100 nM.

`NCCc1cc(NC(=O)N2C[C@@H](O)c3cc(F)ccc32)c2c(c1)C(=O)N[C@H]2c1cc(F)ccc1Cl` (single isomer, unassigned) [Compound I-2446] had a half-inhibitory concentration (IC50) of 1000 to 10000 nM.

In turn, `CC1(C2NC(=O)c3cccc(NC(=O)c4cc(F)cc(C(F)(F)F)c4)c32)CC1` (racemic) [Compound I-1791] displayed an IC50 of 10000 to 100000 nM.

`Cc1ccccc1[C@H]1NC(=O)c2c(C#N)ccc(NC(=O)c3cc(F)cc(C(F)(F)F)c3)c21` [Compound I-397] displayed an IC50 of 100 to 500 nM.

The compound `Cc1ccccc1C1NC(=O)c2cccc(-c3nnc(-c4ccccc4)[nH]3)c21` (stereo not shown) [Compound I-398] displayed an IC50 of 10000 to 100000 nM.

For `O=C(Nc1cc(Br)cc2c1C(c1cc(F)ccc1Cl)NC2=O)c1ccccc1OC(F)(F)F` (stereo not shown) [Compound I-571], the IC50 fell in the range of 1000 to 10000 nM.

In the case of `O=C(Nc1cc(Br)cc2c1[C@@H](c1cccc(F)c1Cl)NC2=O)c1cc(F)cc(C(F)(F)F)c1` [Compound I-667], the IC50 is 1000 to 10000 nM.

Take `O=C(Nc1cc(-c2ccc3ncc(C(F)F)n3c2)cc2c1C(c1cc(F)ccc1Cl)NC2=O)c1cc(F)cc(C(F)(F)F)c1` (stereo not shown) [Compound I-1866]: the IC50 is no more than 100 nM.

For the compound `O=C1N[C@H](c2cc(F)ccc2Cl)c2c(NC(=O)N3C[C@](O)(C(F)(F)F)c4ccccc43)cccc21` (single isomer, unassigned) [Compound I-2385], the IC50 fell in the range of 1000 to 10000 nM.

`O=C(Nc1cc(N2CC(C(F)F)C2)nc2c1C(c1cc(F)ccc1Cl)NC2=O)c1cc(F)cc(C(F)(F)F)c1` (stereo not shown) [Compound I-487] showed an IC50 of no more than 100 nM.

For `O=C(Nc1cc(-c2ccc3ncc(F)n3c2)cc2c1[C@H](c1cc(F)ccc1Cl)NC2=O)c1cc(F)cc(C(F)(F)F)c1` [Compound I-1870], the IC50 is no more than 100 nM.

As to `N#Cc1ncc(-c2cc(NC(=O)c3cc(F)cc(C(F)(F)F)c3)c3c(c2)C(=O)NC3c2cc(F)ccc2Cl)cn1` (stereo not shown) [Compound I-886], the IC50 was no more than 100 nM.

`O=C1N[C@H](c2cc(F)ccc2Cl)c2c(NC(=O)N3C[C@@H](CO)[C@H](C(F)(F)F)C3)cccc21` (single isomer, unassigned) [Compound I-2276]: the IC50 fell in the range of 10000 to 100000 nM.

Compound `O=C(Nc1cc(-c2ccc3ncnn3c2)cc2c1[C@@H](c1cc(F)ccc1Cl)NC2=O)c1cc(F)cc(Cl)c1` (stereo in doubt) [Compound I-1166] came in with an IC50 of 1000 to 10000 nM.

With `O=C(Nc1cc(Br)cc2c1C(c1cc(F)ccc1Cl)NC2=O)c1cccc(Cl)c1` (stereo not shown) [Compound I-573], the IC50 lay within 500 to 1000 nM.

In turn, `CC(O)c1cc(-c2ccc3ncnn3c2)cc2c1C(c1cc(F)ccc1Cl)NC2=O` (stereo not shown) [Compound I-1907] gave an IC50 of 10000 to 100000 nM.

In turn, `O=C(Nc1cc(Br)cc2c1C(c1cc(F)cc(F)c1Cl)NC2=O)c1cc(F)cc(C(F)(F)F)c1` (stereo not shown) [Compound I-807] came in with an IC50 of no more than 100 nM.

Take `CN1CC=C(c2cc(-c3ccc4ncnn4c3)cc3c2C(c2cc(F)ccc2Cl)NC3=O)CC1` (stereo not shown) [Compound I-2021]: the IC50 was in the range of 10000 to 100000 nM.

Compound `Cn1cc2c(C(=O)Nc3cccc4c3C(c3cc(F)ccc3Cl)NC4=O)cc(F)cc2n1` (stereo not shown) [Compound I-870] gave an IC50 of 10000 to 100000 nM.

In turn, `N#C[C@H]1C[C@H](c2cc(NC(=O)c3cc(F)cc(C(F)(F)F)c3)c3c(c2)C(=O)N[C@H]3c2cc(F)ccc2Cl)C1` (single isomer, unassigned) [Compound I-1326] gave an IC50 of no more than 100 nM.

As to `[2H]C([2H])(c1cc(NC(=O)c2cc(F)cc(C(F)(F)F)c2)c2c(c1)C(=O)NC2c1cc(F)ccc1Cl)S(C)(=O)=O` (stereo not shown) [Compound I-1551], the IC50 was no more than 100 nM.

Consider `Cc1ccccc1C1NC(=O)c2cccc(NC(=O)N3CC(=O)Nc4ccccc43)c21` (stereo not shown) [Compound I-44], for which the IC50 is 10000 to 100000 nM.

In turn, `O=C(Nc1cccc2c(=O)[nH]n(-c3cc(F)ccc3Cl)c12)c1cc(F)cc(C(F)(F)F)c1` [Compound I-323] had an IC50 of 1000 to 10000 nM.

Regarding `C[C@H](C#N)Cn1cc(-c2cc(NC(=O)N3C[C@H](O)c4cc(F)ccc43)c3c(c2)C(=O)N[C@@H]3c2cc(F)ccc2Cl)cn1` (single isomer, unassigned) [Compound I-2500], the IC50 lay within 100 to 500 nM.

As to `N#Cc1ccc(C(F)(F)F)c(NC(=O)Nc2cc(Br)cc3c2C(c2cc(F)ccc2Cl)NC3=O)c1` (stereo not shown) [Compound I-1051], the IC50 was 1000 to 10000 nM.

Regarding `O=C1N[C@@H](c2cc(F)ccc2Cl)c2c(NC(=O)N3C[C@@H](O)c4cc(F)ccc43)cc(-n3cccn3)cc21` (single isomer, unassigned) [Compound I-2366], the IC50 lay within 1000 to 10000 nM.

`O=C(Nc1cc(-c2ccc3ncnn3c2)cc2c1[C@H](c1cc(F)ccc1Cl)NC2=O)c1cc(F)cc2c1NC(=O)C2(F)F` [Compound I-1584] had an IC50 of 100 to 500 nM.

As to `N#Cc1cnccc1-c1cc(NC(=O)c2cc(F)cc(Cl)c2)c2c(n1)C(=O)NC2c1cc(F)ccc1Cl` (stereo not shown) [Compound I-506], the IC50 is no more than 100 nM.

`O=C1NC(c2ccncc2Cl)c2c(NC(=O)c3csc4ccccc34)cccc21` (stereo not shown) [Compound I-101]: the IC50 lay in the range of 1000 to 10000 nM.

For the compound `Cc1ccc(C(=O)Nc2cc(Br)cc3c2C(c2cc(F)ccc2Cl)NC3=O)cc1` (stereo not shown) [Compound I-519], the IC50 lay within 10000 to 100000 nM.

The compound `CN1CCN(C(=O)Nc2cc(Br)cc3c2[C@H](c2cc(F)ccc2Cl)NC3=O)CC1` (single isomer, unassigned) [Compound I-2244] showed an IC50 of 10000 to 100000 nM.

As for `Cc1ccccc1C1NC(=O)c2c(CCO)ccc(NC(=O)c3csc4ccccc34)c21` (stereo not shown) [Compound I-119], the IC50 is no more than 100 nM.

For `Cc1ccccc1C1NC(=O)c2cccc(NC(=O)c3cccc(C(F)(F)F)c3)c21` (stereo not shown) [Compound I-435], the IC50 fell in the range of 1000 to 10000 nM.

`O=C(Nc1cccc2c1C(c1cc(Br)ccc1Cl)NC2=O)c1cc(F)cc(C(F)(F)F)c1` (stereo not shown) [Compound I-446]: the IC50 is no more than 100 nM.

`Cc1ccccc1C1NC(=O)c2c(C(=O)N3CC(C#N)C3)ccc(NC(=O)c3nsc4ccccc34)c21` (stereo not shown) [Compound I-219] showed a half-maximal inhibitory concentration (IC50) of 500 to 1000 nM.

`O=C(Nc1cc(-c2ccnc(C(F)F)c2)cc2c1[C@@H](c1cc(F)ccc1Cl)NC2=O)c1cc(F)cc(C(F)(F)F)c1` [Compound I-2002] came in with an IC50 of 1000 to 10000 nM.

In turn, `NC(=O)Cn1cc(-c2cc(NC(=O)c3cc(F)cc(C(F)(F)F)c3)c3c(c2)C(=O)NC3c2cc(F)ccc2Cl)cn1` (stereo not shown) [Compound I-1481] came in with an IC50 of no more than 100 nM.

In turn, `CC(C)Oc1cc(NC(=O)c2cc(F)cc(C(F)(F)F)c2)c2c(c1)C(=O)NC2c1cc(F)ccc1Cl` (stereo not shown) [Compound I-1253] registered an IC50 of no more than 100 nM.

Take `N#CCOc1cc(NC(=O)c2cc(F)cc(C(F)(F)F)c2)c2c(c1)C(=O)N[C@@H]2c1cc(F)ccc1Cl` [Compound I-1887]: the IC50 fell in the range of 500 to 1000 nM.

Consider `O=C1NC(c2cc(F)ccc2Cl)c2c(NC(=O)C34CC(C(O)(C5CC5)C5CC5)(C3)C4)cccc21` (stereo not shown) [Compound I-2118], for which the IC50 was 10000 to 100000 nM.

For the compound `O=C1N[C@@H](c2cc(F)ccc2Cl)c2c(NC(=O)N3C[C@](O)(C(F)(F)F)c4cc(F)ccc43)cc(-n3ccccc3=O)cc21` (single isomer, unassigned) [Compound I-2529], the IC50 is 1000 to 10000 nM.

Compound `O=C1N[C@H](c2cc(F)ccc2Cl)c2c(NC(=O)N3C[C@@](O)(C(F)(F)F)c4ccccc43)cccc21` (single isomer, unassigned) [Compound I-2383] displayed a half-inhibitory concentration (IC50) of 10000 to 100000 nM.

Take `O=C(Nc1cc(-c2ccc(C(F)F)nc2)cc2c1C(c1cc(F)ccc1Cl)NC2=O)c1cc(F)cc(C(F)(F)F)c1` (stereo not shown) [Compound I-1932]: the IC50 was 100 to 500 nM.

The compound `O=C(Nc1cc(CNCc2ccccc2)nc2c1C(c1cc(F)ccc1Cl)NC2=O)c1cc(F)cc(C(F)(F)F)c1` (stereo not shown) [Compound I-444] registered an IC50 of 100 to 500 nM.

On to `N#CCn1nccc1-c1cc(NC(=O)c2cc(F)cc(C(F)(F)F)c2)c2c(c1)C(=O)NC2c1cc(F)ccc1Cl` (stereo not shown) [Compound I-1303], for which the concentration for half-maximal inhibition (IC50) is no more than 100 nM.

For `O=C(Nc1cccc2c1[C@@H](CC1CCCCC1)NC2=O)c1cc(F)cc(C(F)(F)F)c1` [Compound I-2057], the IC50 lay within 1000 to 10000 nM.

As to `O=C(Nc1cc(-c2ccn3nc(Cl)nc3c2)cc2c1[C@@H](c1cc(F)ccc1Cl)NC2=O)c1cc(F)cc(C(F)(F)F)c1` [Compound I-1695], the IC50 is 1000 to 10000 nM.

The compound `C[C@]1(O)CN(C(=O)Nc2cc(Br)cc3c2C(c2cc(F)ccc2Cl)NC3=O)c2ccccc21` (single isomer, unassigned) [Compound I-1508] registered an IC50 of 1000 to 10000 nM.

For the compound `O=C(Nc1cccc2c1C(c1cc(F)ccc1Cl)NC2=O)c1cscc1C(F)(F)F` (stereo not shown) [Compound I-2361], the IC50 fell in the range of 1000 to 10000 nM.

`N#CC[C@H](O)c1cc(NC(=O)c2cc(F)cc(C(F)(F)F)c2)c2c(c1)C(=O)N[C@@H]2c1cc(F)ccc1Cl` (single isomer, unassigned) [Compound I-1392] gave an IC50 of 1000 to 10000 nM.

Take `O=C1NC(c2cc(F)ccc2Cl)c2c1cc(-c1cnn(C(F)F)c1)cc2-c1nc2cc(C(F)(F)F)cc(F)c2[nH]1` (stereo not shown) [Compound I-2048]: the IC50 lay in the range of 1000 to 10000 nM.

Compound `O=C1NC(c2cc(F)ccc2Cl)c2c(NC(=O)N3CCCCc4ccccc43)cccc21` (stereo not shown) [Compound I-2306] displayed an IC50 of 10000 to 100000 nM.

As for `O=C(Nc1cc(-c2ccc3ncnn3c2)nc2c1[C@H](c1cc(F)ccc1Cl)NC2=O)c1cc(F)cc(C(F)(F)F)c1` [Compound I-1229], the IC50 is no more than 100 nM.

Compound `Cc1ccccc1C1NC(=O)c2cncc(NC(=O)c3cc(F)cc(C(F)(F)F)c3)c21` (stereo not shown) [Compound I-233] displayed an IC50 of 100 to 500 nM.

For the compound `CN1C(=O)CCC1COc1cc(NC(=O)c2cc(F)cc(C(F)(F)F)c2)c2c(c1)C(=O)NC2c1cc(F)ccc1Cl` (racemic) [Compound I-1347], the IC50 was no more than 100 nM.

In general, IC50 refers to the concentration needed to halve the response being measured. Lower therefore signals greater potency in that assay.
